Common to all, as to assay: serine hydrolase off-target inhibition in mouse brain, late-stage follow-up, selectivity assay for DAGLb inhibitor project, biochemical, gel-based competitive ABPP, mouse brain membrane, set 1 (AID 602311)
Assay [1] relates to ABHD12. Particulars: gel-based competitive ABPP fluorescence, at 10 µM, active compounds read high.
Assay [2] concerns APEH. Particulars: gel-based competitive ABPP fluorescence, at 10 µM, active compounds read high.
Assay [3] concerns the target Acyl-protein thioesterase 1 (Mus musculus) (UniProt P97823). The note with it: gel-based competitive ABPP fluorescence, LYPLA1, at 10 µM, active compounds read high.
For assay [4], the system named is FAAH. The note with it: gel-based competitive ABPP fluorescence, at 10 µM, active compounds read high.
The subject of assay [5] is KIAA1363. The note with it: gel-based competitive ABPP fluorescence, at 10 µM, active compounds read high.
In assay [6] the test system is LYPLA2. Particulars: gel-based competitive ABPP fluorescence, at 10 µM, active compounds read high.
Assay [7] relates to MAGL. The note with it: gel-based competitive ABPP fluorescence, at 10 µM, active compounds read high.
Assay [8] deals with Monoacylglycerol lipase ABHD6 (Mus musculus) (UniProt Q8R2Y0). Particulars: gel-based competitive ABPP fluorescence, at 10 µM, active compounds read high.
Chain of Monoacylglycerol lipase ABHD6 (Mus musculus) (Q8R2Y0 whole entry, looked up): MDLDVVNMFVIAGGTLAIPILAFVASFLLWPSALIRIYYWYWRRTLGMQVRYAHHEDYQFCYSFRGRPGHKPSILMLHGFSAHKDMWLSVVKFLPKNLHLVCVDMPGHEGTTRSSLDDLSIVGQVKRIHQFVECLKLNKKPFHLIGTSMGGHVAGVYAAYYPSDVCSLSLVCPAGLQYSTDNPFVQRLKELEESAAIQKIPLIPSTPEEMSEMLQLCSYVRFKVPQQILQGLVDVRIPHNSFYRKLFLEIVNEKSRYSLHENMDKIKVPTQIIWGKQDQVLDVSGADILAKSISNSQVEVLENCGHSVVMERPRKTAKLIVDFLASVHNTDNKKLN

Activity calls are given as the source filed them. The rule behind the calls is not given here.

Chain of Acyl-protein thioesterase 1 (Mus musculus) (P97823 whole entry, looked up): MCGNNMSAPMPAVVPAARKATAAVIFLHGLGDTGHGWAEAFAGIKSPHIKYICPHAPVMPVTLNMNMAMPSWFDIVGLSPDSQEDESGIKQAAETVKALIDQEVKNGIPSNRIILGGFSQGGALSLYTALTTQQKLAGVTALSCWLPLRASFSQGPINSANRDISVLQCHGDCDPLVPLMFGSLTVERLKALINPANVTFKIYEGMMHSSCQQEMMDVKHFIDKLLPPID

On to `O=C(N1CCCCC1Cc1ccccc1)n1cc(-c2ccc(-c3ccc(C(F)(F)F)cc3)cc2)nn1` (centres undefined), for which the inhibition (in general, the percentage by which the read-out fell short of the control) was 0% (inactive) in assay [1]; 0% (inactive) in assay [2]; 0% (inactive) in assay [3]; 55% in assay [4]; 60% in assay [5]; 0% (inactive) in assay [6]. Moreover, the figures for the inhibition in assay [7] and in assay [8] were 10% (inactive) and 90%, respectively.
On to `O=C(N1CCCCC1Cc1ccccc1)n1ncc(-c2ccc(OC(F)(F)F)cc2)n1` (centres undefined), for which the inhibition in assay [1] is 0% (inactive); in assay [2], 0% (inactive); in assay [3], 0% (inactive); in assay [4], 98%; in assay [5], 90%; in assay [6], 0% (inactive). For the same compound, the inhibition in assay [7] is 0% (inactive); in assay [8] it was 85%.
Regarding `O=C(N1CCCCC1Cc1ccccc1)n1cc(-c2ccc(-c3cccc(C(F)(F)F)c3)cc2)nn1` (centres undefined), the inhibition in assay [1] is 0% (inactive); in assay [2], 0% (inactive); in assay [3], 0% (inactive); in assay [4], 65%; in assay [5], 10% (inactive); in assay [6], 0% (inactive). In addition, the figures for the inhibition in assay [7] and in assay [8] were 1% (inactive) and 85%, respectively.
For `O=C(N1CCCCC1Cc1ccccc1)n1cc(-c2ccc(-c3ccc(OC(F)(F)F)cc3)cc2)nn1` (centres undefined), the inhibition in assay [1] was 0% (inactive); in assay [2] it was 0% (inactive); in assay [3] it was 0% (inactive); in assay [4] it was 45% (inactive); in assay [5], 55%; in assay [6] it was 0% (inactive). The inhibition is 0% (inactive) in assay [7] and 90% in assay [8].
In the case of `CC(C)CN(CCc1ccccc1)C(=O)n1cc(-c2ccc(OC(F)(F)F)cc2)nn1`, the inhibition in assay [1], in assay [2], in assay [3], in assay [4], in assay [5] and in assay [6] was 0% (inactive) throughout. Moreover, the inhibition was 0% (inactive) in assay [7] and 90% in assay [8].
Consider `Cc1ccccc1-c1ccc(-c2cn(C(=O)N3CCCCC3Cc3ccccc3)nn2)cc1` (centres undefined), for which the inhibition was 0% (inactive) in assay [1]; 0% (inactive) in assay [2]; 0% (inactive) in assay [3]; 30% (inactive) in assay [4]; 0% (inactive) in assay [5]; 0% (inactive) in assay [6]. Besides, the inhibition in assay [7] is 0% (inactive); in assay [8], 98%.
Turning to `O=C(N1CCCCC1Cc1ccccc1)n1cc(-c2ccc(-c3ccccc3Cl)cc2)nn1` (centres undefined), the inhibition in assay [1] is 0% (inactive); in assay [2], 0% (inactive); in assay [3] it was 0% (inactive); in assay [4], 30% (inactive); in assay [5], 20% (inactive); in assay [6], 0% (inactive). For the same compound, the inhibition is 10% (inactive) in assay [7] and 95% in assay [8].
As for `O=C(c1ccc(-c2ccc(-c3cn(C(=O)N4CCCCC4Cc4ccccc4)nn3)cc2)cc1)N1CCCCC1` (centres undefined), the inhibition was 0% (inactive) in assay [1]; 0% (inactive) in assay [2]; 0% (inactive) in assay [3]; 10% (inactive) in assay [4]; 10% (inactive) in assay [5]; 0% (inactive) in assay [6]. Besides, the inhibition in assay [7] was 0% (inactive); in assay [8] it was 85%.
